Here are results for 1 compound from patent publication US5169758A (Boehringer Mannheim GmbH, priority 1986, dated 1992).

In this assay the test system is NAD(P)H-dependent, soluble nitrate reductase of the assimilatory type (E.C. 1.6.6.2) from mould fungus. As to conditions: nitrite acts as inhibitor above this concentration.

SMILES strings stand for the structures.

For `O=NO` [nitrite], the “Inhibitor concentration (product inhibition)” value is listed as “more than 10^-4 M”.
